2 compounds from patent publication US11814371B2, “Heterocyclic compound” (MEDSHINE DISCOVERY INC., priority 2020, dated 2023) can be followed below.

For data set [1], the system named is rat DME model induced by CA-1 (100 ng). Put plainly: In vivo pharmacodynamic study on rat DME model induced by CA-1 (retinal thickness by OCT). The arrangement: species or system male SD rats. On the procedure: 20 rats were selected from 25 male SD rats and divided into 5 groups according to their body weight, with 4 rats in each group and 1 spare rat in each group, and all the animals were examined by optical coherence tomography before modeling, 48 hours and 72 hours after modeling, respectively. The appropriate scanning position for measurement was selected and the retinal thickness was marked. Through the changes of retinal thickness in each group, the effects of the test compounds on improving retinal edema were compared, and the active compounds were screened. The above experimental operations of modeling and inspection should follow the order of the right eye first and then the left eye.
• Species: Rat • Strain: SD rat, SPF grade • Age and weight: 7-8 weeks old, weighing 250-300 g • Sex: Male • Supplier: Zhejiang Vital River Laboratory Animal Technology Co., Ltd. • Animal certificate number: • 2.2 Molding agent • Carbonic anhydrase-1 (CA-1, Sigma) • 3. Experimental methods and procedures • 3.1 Administration and modeling
On the day of modeling, all animals were first administered the vehicle or the test compound orally, and about 4 hours later, the animals were injected with physiological saline (5 µL/eye) or CA-I (100 ng/eye) into the vitreous cavity of both eyes for modeling, and the end time of injection in the second eye was recorded as 0 hour, and the vehicle (10 % DMSO + 90 % labrasol) or the test compound was administered orally to all animals at 4±0.5 hours, 20±0.5 hours, 28±0.5 hours, 44±0.5 hours, 52±0.5 hours and 68±0.5 hours after modeling, respectively.
Before modeling, 48 hours and 72 hours after modeling, animals were first anesthetized, and then examined by optical coherence tomography (OCT), and before anesthesia, appropriate mydriatic agents were used to ensure that the pupils of animals were completely dilated, and the animals were anesthetized by a combination of intramuscular injection of Zoletil (5 mg/kg) and Xylazine solution (3 mg/kg). OCT inspection requirements are as follows: • 1) The optic disc should be placed in the center of the infrared fundus image during data collection; • 2) the retinal scan was performed in a “pozidriv” type, with the crossover point over the optic disc, and the retina was scanned at the widest length. • 3) The software tracking function was used as much as possible for comparison of retinal thickness before and after administration, and if the tracking function was not available, the eye position was adjusted as much as possible to be consistent with that before administration, and the clarity of the tomographic images was ensured as much as possible to facilitate comparison of retinal thickness before and after administration.

The nature of data set [2]: Pharmacokinetic test in rats after intravenous and intragastric administration (plasma, LC-MS/MS). Format: in vivo. As to conditions: male, SD, rat; for bioavailability: read-out: Bioavailability F; for AUC(0-inf): read-out: Curve area (o-inf) AUC0-inf; for AUC(0-t): read-out: Curve area (o-t) AUC0-last; for half-life: read-out: Half-life T½ (converted); for Tmax: read-out: Peak time Tmax; for Cmax: read-out: Plasma drug concentration Cmax; for Vd: read-out: Apparent volume of distribution Vdss; for clearance: read-out: Clearance rate Cl. On the procedure:
Male SD rats were used as test animals, and LC-MS/MS method was used to determine the drug concentrations in plasma of rats at different times after intravenous and intragastric administration of test compounds. The pharmacokinetic behaviors of the compounds in rats were studied and the pharmacokinetic characteristics were evaluated.
2.2 Test animals: 28 healthy adult male SD rats were divided into 14 groups with 2 rats in each group. Animals were purchased from Beijing Vital River Laboratory Animal Technology Co., Ltd.
An appropriate amount of sample was weighed, and an appropriate amount of DMSO, polyoxyethylene castor oil and sterile water for injection were added in sequence according to the volume ratio of 10:10:80, then the mixture was stirred and sonicated to reach a clear state of 0.5 mg/mL for intravenous administration.
An appropriate amount of sample was weighed, and an appropriate amount of DMSO, polyoxyethylene castor oil and sterile water for injection were added in sequence according to the volume ratio of 10:10:80, then the mixture was stirred and sonicated to reach a clear or suspension state of 0.4 mg/mL for intragastric administration.
An appropriate amount of sample was weighed, and an appropriate amount of DMSO, polyoxyethylene castor oil and sterile water for injection were added in sequence according to the volume ratio of 10:10:80, then the mixture was stirred and sonicated to reach a clear state of 3 mg/mL for intravenous administration.
2.4 Administration: 28 male SD rats were divided into 14 groups, after fasting for one night, the intravenous administration group was administered with an administration volume of 2 mL/kg and a dose of 1 mg/kg; the intragastric administration group 1 was administered with an administration volume of 5 mL/kg and a dose of 2 mg/kg. The intragastric administration group 2 was administered with an administration volume of 10 mL/kg and a dose of 30 mg/kg.
After the compound was administered intravenously to male SD rats, 40 µL of blood was collected at 0.0833, 0.25, 0.5, 1, 2, 4, 8 and 24 hours, respectively, and placed in tubes containing 2 µL of EDTA-K2. After the compound was administered in the intragastric administration group, 40 µL of blood was collected at 0.25, 0.5, 1, 2, 4, 6, 10 and 24 hours, respectively, and placed in tubes containing 2 µL of EDTA-K2. The tubes were centrifuged at 4000 rpm for 15 minutes to separate the plasma, and stored at -60° C. Animals were allowed to eat 2 hours after administration.
LC-MS/MS method was used to determine the content of the test compounds in the plasma of rats after intravenous and intragastric administration. The linear range of the method was 2.00 - 6000 nmol/L; plasma samples were treated with acetonitrile to precipitate protein, and then analyzed.

The mark [3] stands for this setting: oral 75 mg/kg, 48 hours after modeling.
[4] abbreviates: oral 75 mg/kg, 72 hours after modeling.
Where [5] appears, read: po, intragastric administration (group 1), nominal 2 mg/kg (actual dose in c2).
The mark [6] stands for this setting: intravenous administration, nominal 1 mg/kg (actual dose in c2).
Where [7] appears, read: po, intragastric administration (group 2), nominal 30 mg/kg (actual dose in c2).

The structures appear in SMILES notation. Like-named read-outs stand apart in the source and are kept apart here.

For `COc1ccc(F)c(CNC(=O)c2cn(Cc3ccc(Cn4cc(F)ccc4=O)cc3)nc2C2COC2)c1F` [Compound 1], the “relief rate of retinal thickening” value in data set [1] (oral 50 mg/kg, 48 hours after modeling) came to 19%. Besides, in data set [1] (oral 50 mg/kg, 72 hours after modeling), the “relief rate of retinal thickening” value turned out to be 79%. In addition, the “relief rate of retinal thickening” value in data set [1] (setting [3]) was found to be 100%. In addition, the “relief rate of retinal thickening” value in data set [1] (setting [4]) was found to be 100%. For the same compound, in data set [2] (setting [5]), the bioavailability (commonly the share of a dose that reaches the circulation, judged against a reference dose that is usually intravenous) came out at 15.3%; the AUC(0-inf) was 1.34 µM·h; the AUC(0-t) came out at 1.33 µM·h; the half-life – broadly, the time needed for the level to fall by half in the phase considered – was 93.6 min. For the same compound, in data set [2] (setting [5]), the Tmax (as a rule, the time from dosing to the highest level) was determined as 30 min and the Cmax was 1140 nM. In data set [2] (setting [6]), the Vd was determined as 0.202 L/kg, the clearance (commonly the rate of elimination divided by the concentration) turned out to be 7.09 mL/min/kg, the AUC(0-inf) came to 4.38 µM·h and the AUC(0-t) was 4.35 µM·h. Also, the half-life in data set [2] (setting [6]) is 37.4 min.
Consider `COc1ccc(F)c(CNC(=O)c2cn(Cc3ccc(Cn4cc(F)ccc4=O)c(F)c3)nc2C2COC2)c1F` [Compound 8], for which the “relief rate of retinal thickening” value in data set [1] (setting [3]) is reported as 84%. In data set [1] (setting [4]), the “relief rate of retinal thickening” value turned out to be 116%. In addition, in data set [2] (setting [5]), the bioavailability worked out at 11.2%, the AUC(0-inf) stood at 0.591 µM·h, the AUC(0-t) was determined as 0.584 µM·h and the half-life was 94.2 min. In data set [2] (setting [5]), the Tmax was 15 min and the Cmax amounted to 680 nM. Moreover, in data set [2] (setting [7]), the bioavailability came out at 54%, the AUC(0-inf) was found to be 42.5 µM·h, the AUC(0-t) was 42.4 µM·h and the half-life is 115 min. In data set [2] (setting [7]), the Tmax turned out to be 15 min and the Cmax turned out to be 18600 nM. In addition, in data set [2] (setting [6]), the Vd stood at 0.188 L/kg, the clearance came out at 12.2 mL/min/kg, the AUC(0-inf) was 2.62 µM·h and the AUC(0-t) was determined as 2.62 µM·h. Besides, the half-life in data set [2] (setting [6]) is 23.5 min.
